# pKi: −log10 of the molar value.
# Assays:
# [1] = biological target: hCA IV (Homo sapiens, UniProt P22748); details: read-out: KI hCA IV; stopped-flow CO2 hydrase assay; mean from three different assays, errors ±5–10%
# [2] = biological target: hCA I (Homo sapiens, UniProt P00915); details: read-out: KI hCA I; stopped-flow CO2 hydrase assay; mean from three different assays, errors ±5–10%
# [3] = biological target: T1, hCA IX (Homo sapiens, UniProt Q16790); assay type: biochemical
# T1 construct: made in house
# [4] = biological target: hCA VII (Homo sapiens, UniProt P43166); details: read-out: KI hCA VII; stopped-flow CO2 hydrase assay; mean from three different assays, errors ±5–10%
# hCA VII, sequence (P43166 whole entry): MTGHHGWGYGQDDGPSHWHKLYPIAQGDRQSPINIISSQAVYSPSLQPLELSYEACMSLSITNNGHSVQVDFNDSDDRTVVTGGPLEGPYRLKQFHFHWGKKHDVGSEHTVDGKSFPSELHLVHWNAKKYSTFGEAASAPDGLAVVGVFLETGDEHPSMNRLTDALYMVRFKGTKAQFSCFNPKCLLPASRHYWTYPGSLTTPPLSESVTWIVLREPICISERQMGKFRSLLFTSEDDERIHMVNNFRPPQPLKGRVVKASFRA
# [5] = biological target: hCA II (Homo sapiens, UniProt P00918); details: read-out: KI hCA II; stopped-flow CO2 hydrase assay; mean from three different assays, errors ±5–10%
# [6] = biological target: hCA XII (Homo sapiens, UniProt O43570); details: read-out: KI hCA XII; stopped-flow CO2 hydrase assay; mean from three different assays, errors ±5–10%
# hCA XII, sequence (O43570 25-354): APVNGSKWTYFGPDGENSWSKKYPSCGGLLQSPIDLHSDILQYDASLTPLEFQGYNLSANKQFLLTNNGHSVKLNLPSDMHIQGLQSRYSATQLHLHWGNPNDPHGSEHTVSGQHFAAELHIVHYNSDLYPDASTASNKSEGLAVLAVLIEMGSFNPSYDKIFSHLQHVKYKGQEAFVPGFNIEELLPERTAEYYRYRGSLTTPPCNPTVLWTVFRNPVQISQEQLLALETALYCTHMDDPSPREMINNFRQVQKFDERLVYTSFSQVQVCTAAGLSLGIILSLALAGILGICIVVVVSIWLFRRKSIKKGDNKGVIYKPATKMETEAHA
# hCA I, sequence (P00915 whole entry): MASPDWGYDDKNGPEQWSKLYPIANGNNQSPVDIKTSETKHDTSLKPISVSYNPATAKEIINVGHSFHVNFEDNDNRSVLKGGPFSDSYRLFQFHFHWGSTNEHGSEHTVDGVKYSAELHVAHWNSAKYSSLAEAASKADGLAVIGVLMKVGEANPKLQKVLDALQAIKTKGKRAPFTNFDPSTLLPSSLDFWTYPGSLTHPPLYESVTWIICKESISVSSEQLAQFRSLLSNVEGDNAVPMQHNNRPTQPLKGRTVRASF
# hCA IV, sequence (P22748 19-312): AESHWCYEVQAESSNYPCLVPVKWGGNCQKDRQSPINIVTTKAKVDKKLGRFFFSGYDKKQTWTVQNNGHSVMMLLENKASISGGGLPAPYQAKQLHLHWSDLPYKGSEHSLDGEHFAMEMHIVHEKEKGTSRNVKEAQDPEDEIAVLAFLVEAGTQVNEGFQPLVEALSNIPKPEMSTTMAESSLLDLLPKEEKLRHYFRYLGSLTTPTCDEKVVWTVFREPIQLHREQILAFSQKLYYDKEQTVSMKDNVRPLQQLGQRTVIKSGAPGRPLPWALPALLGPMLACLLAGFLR
SMILES,pKi [1],pKi [2],pKi [3],pKi [4],pKi [5],pKi [6],"fold more active than its enantiomer, hCA IX [3]"
"NS(=O)(=O)c1ccc(N2CCC(NC(=O)Nc3ccc(Cl)c(C(F)(F)F)c3)C2)nc1 (stereo in doubt) [10b, (R)-6-(3-(3-(4-Chloro-3-(trifluoromethyl)phenyl)ureido)pyrrolidin-1-yl)pyridine-3-sulfonamide]",5.07,6.15,7.11,7.81,–,–,–
"NS(=O)(=O)c1ccc(N2CC[C@H](NC(=O)Nc3ccc(F)cc3)C2)nc1 [7b, (S)-6-(3-(3-(4-Fluorophenyl)ureido)pyrrolidin-1-yl)pyridine-3-sulfonamide]",5.08,–,7.69,7.92,6.73,7.30,–
"NS(=O)(=O)c1ccc(N2CC[C@@H](NC(=S)Nc3ccc(F)cc3)C2)nc1 [8a, (R)-6-(3-(3-(4-Fluorophenyl)thioureido)pyrrolidin-1-yl)pyridine-3-sulfonamide]",5.51,–,7.51,8.07,–,7.40,–
"NS(=O)(=O)c1ccc(N2CC[C@@H](NC(=S)Nc3ccccc3)C2)nc1 [9a, (R)-6-(3-(3-Phenylthioureido)pyrrolidin-1-yl)pyridine-3-sulfonamide]",5.43,6.79,7.59,8.07,–,7.23,–
"NS(=O)(=O)c1ccc(N2CC[C@H](NC(=S)Nc3ccccc3)C2)nc1 [9b, (S)-6-(3-(3-Phenylthioureido)pyrrolidin-1-yl)pyridine-3-sulfonamide]",5.02,6.49,7.27,7.94,–,7.63,–
"NS(=O)(=O)c1ccc(N2CC[C@H](NC(=O)Nc3ccccc3F)C2)nc1 [11b, (S)-6-(3-(3-(2-Fluorophenyl)ureido)pyrrolidin-1-yl)pyridine-3-sulfonamide]",–,6.32,–,7.94,–,7.36,–
"NS(=O)(=O)c1ccc(N2CC[C@H](NC(=O)Nc3ccc(Cl)c(Cl)c3)C2)nc1 [14b, (S)-6-(3-(3-(3,4-Dichlorophenyl)ureido)pyrrolidin-1-yl)pyridine-3-sulfonamide]",5.60,–,–,7.92,6.26,7.35,–
"NS(=O)(=O)c1ccc(N2CC[C@H](NC(=O)Nc3ccc4c(c3)OCCO4)C2)nc1 [15b, (S)-6-(3-(3-(2,3-Dihydrobenzo[b][1,4]dioxin-6-yl)ureido)pyrrolidin-1-yl)pyridine-3-sulfonamide]",5.24,6.26,7.09,7.53,6.40,7.20,–
"NS(=O)(=O)c1ccc(N2CC[C@@H](NC(=O)Nc3cc(C(F)(F)F)cc(C(F)(F)F)c3)C2)nc1 [16a, (R)-6-(3-(3-(3,5-Bis(trifluoromethyl)phenyl)ureido)pyrrolidin-1-yl)pyridine-3-sulfonamide]",5.29,6.04,5.84,7.39,–,7.42,–
"NS(=O)(=O)c1ccc(N2CC[C@@H](NC(=S)Nc3ccc(C4c5ccc(O)cc5Oc5cc(O)ccc54)c(C(=O)O)c3)C2)nc1 [17a, (R)-2-(3,6-Dihydroxy-9H-xanthen-9-yl)-5-(3-(1-(5-sulfamoylpyridin-2-yl)pyrrolidin-3-yl)thioureido)benzoic Acid]",6.07,7.09,7.49,8.11,7.37,8.41,–
"NS(=O)(=O)c1ccc(N2CC[C@H](NC(=S)Nc3ccc(C4c5ccc(O)cc5Oc5cc(O)ccc54)c(C(=O)O)c3)C2)nc1 [17b, (S)-2-(3,6-Dihydroxy-9H-xanthen-9-yl)-5-(3-(1-(5-sulfamoylpyridin-2-yl)pyrrolidin-3-yl)thioureido)benzoic Acid]",5.28,7.04,8.07,7.83,7.37,7.56,–
"COc1ccccc1NC(=O)N[C@H]1CCN(c2ccc(S(N)(=O)=O)cn2)C1 [18b, (S)-6-(3-(3-(2-Methoxyphenyl)ureido)pyrrolidin-1-yl)pyridine-3-sulfonamide]",5.10,6.32,7.21,7.23,6.51,7.41,–
"NS(=O)(=O)c1ccc(N2CC[C@H](NC(=O)Nc3ccc([N+](=O)[O-])cc3)C2)nc1 [19b, (S)-6-(3-(3-(4-Nitrophenyl)ureido)pyrrolidin-1-yl)pyridine-3-sulfonamide]",–,6.10,7.17,8.09,6.28,8.07,–
"NS(=O)(=O)c1ccc(N2CC[C@@H](NC(=O)Nc3ccc(C(F)(F)F)cc3)C2)nc1 [20a, (R)-6-(3-(3-(4-(Trifluoromethyl)phenyl)ureido)pyrrolidin-1-yl)pyridine-3-sulfonamide]",–,–,–,–,6.39,7.35,–
"NS(=O)(=O)c1ccc(N2CC[C@H](NC(=O)Nc3c(F)cc(F)cc3Br)C2)nc1 [22b, (S)-6-(3-(3-(2-Bromo-4,6-difluorophenyl)ureido)pyrrolidin-1-yl)pyridine-3-sulfonamide]",5.09,–,–,7.85,6.32,8.09,–
"NS(=O)(=O)c1ccc(N2CC[C@@H](NC(=O)NS(=O)(=O)c3ccccc3)C2)nc1 [24a, (R)-6-(3-(3-(Phenylsulfonyl)ureido)pyrrolidin-1-yl)pyridine-3-sulfonamide]",7.44,7.71,7.56,7.10,6.29,7.31,–
"NS(=O)(=O)c1ccc(NC(=S)N[C@H]2CCN(c3cccc([N+](=O)[O-])n3)C2)cc1 [37b, (S)-4-(3-(1-(6-Nitropyridin-2-yl)pyrrolidin-3-yl)thioureido)benzenesulfonamide]",5.49,7.26,8.89,8.11,8.31,8.06,–
"NS(=O)(=O)c1cccc(NC(=S)N[C@H]2CCN(c3cccc([N+](=O)[O-])n3)C2)c1 [38b, (S)-3-(3-(1-(6-Nitropyridin-2-yl)pyrrolidin-3-yl)thioureido)benzenesulfonamide]",5.89,8.06,8.85,7.81,8.41,8.03,over 100 fold
"NS(=O)(=O)c1cccc(NC(=O)N[C@H]2CCN(c3ccc(C(F)(F)F)cn3)C2)c1 [46b, (S)-3-(3-(1-(5-(Trifluoromethyl)pyridin-2-yl)pyrrolidin-3-yl)ureido)benzenesulfonamide]",–,6.51,–,–,8.05,8.05,–

# Continued, values first:
pKi [1],pKi [2],pKi [3],pKi [4],pKi [5],pKi [6],"fold more active than its enantiomer, hCA IX [3]",SMILES
5.57,–,7.56,8.59,–,7.45,–,"NS(=O)(=O)c1ccc(N2CC[C@H](NC(=S)Nc3ccc(F)cc3)C2)nc1 [8b, (S)-6-(3-(3-(4-Fluorophenyl)thioureido)pyrrolidin-1-yl)pyridine-3-sulfonamide]"
5.69,6.41,7.64,9.05,–,7.38,–,"NS(=O)(=O)c1ccc(N2CC[C@H](NC(=O)Nc3ccccc3Cl)C2)nc1 [12b, (S)-6-(3-(3-(2-Chlorophenyl)ureido)pyrrolidin-1-yl)pyridine-3-sulfonamide]"
–,–,7.05,7.28,–,7.05,–,"NS(=O)(=O)c1ccc(N2CC[C@H](NC(=O)Nc3ccc(Oc4ccccc4)cc3)C2)nc1 [13b, (S)-6-(3-(3-(4-Phenoxyphenyl)ureido)pyrrolidin-1-yl)pyridine-3-sulfonamide]"
5.60,6.20,7.26,8.08,–,8.03,–,"NS(=O)(=O)c1ccc(N2CC[C@H](NC(=O)Nc3cc(C(F)(F)F)cc(C(F)(F)F)c3)C2)nc1 [16b, (S)-6-(3-(3-(3,5-Bis(trifluoromethyl)phenyl)ureido)pyrrolidin-1-yl)pyridine-3-sulfonamide]"
–,–,–,–,7.45,7.31,–,"NS(=O)(=O)c1ccc(N2CC[C@H](NC(=O)Nc3ccc(C(F)(F)F)cc3)C2)nc1 [20b, (S)-6-(3-(3-(4-(Trifluoromethyl)phenyl)ureido)pyrrolidin-1-yl)pyridine-3-sulfonamide]"
6.07,7.16,8.14,–,7.50,7.39,–,"NS(=O)(=O)c1ccc(N2CC[C@H](NC(=S)Nc3ccccc3F)C2)nc1 [21b, (S)-6-(3-(3-(2-Fluorophenyl)thioureido)pyrrolidin-1-yl)pyridine-3-sulfonamide]"
6.15,7.14,8.04,7.52,7.81,–,–,"NS(=O)(=O)c1ccc(N2CC[C@@H](NC(=O)NS(=O)(=O)c3ccccc3Cl)C2)nc1 [25a, (R)-6-(3-(3-((2-Chlorophenyl)sulfonyl)ureido)pyrrolidin-1-yl)pyridine-3-sulfonamide]"
6.04,7.05,8.01,7.33,7.41,–,–,"NS(=O)(=O)c1ccc(N2CC[C@H](NC(=O)NS(=O)(=O)c3ccccc3Cl)C2)nc1 [25b, (S)-6-(3-(3-((2-Chlorophenyl)sulfonyl)ureido)pyrrolidin-1-yl)pyridine-3-sulfonamide]"
–,6.38,8.10,7.85,–,–,–,"NS(=O)(=O)c1cccc(NC(=S)N[C@H]2CCN(c3ccc(C(F)(F)F)cn3)C2)c1 [40b, (S)-3-(3-(1-(5-(Trifluoromethyl)pyridin-2-yl)pyrrolidin-3-yl)thioureido)benzenesulfonamide]"

# — article PMC9940855, “First-in-Class Dual Hybrid Carbonic Anhydrase Inhibitors and Transient Receptor Potential Vanilloid 1 Agonists Revert Oxaliplatin-Induced Neuropathy” (Journal of Medicinal Chemistry, 2023)
